Assay results from PMC8317958, “Design, synthesis and biological evaluation of novel thiazole-naphthalene derivatives as potential anticancer agents and tubulin polymerisation inhibitors” (Journal of Enzyme Inhibition and Medicinal Chemistry, 2021).
One block for each compound: values may come before it.

Legend:
[1] = tested on: human lung adenocarcinoma cell line (A549); assay: Antiproliferative activity, CCK-8 assay, A549; assay type: cell-based; settings: CCK-8, means of three experiments
[2] = tested on: human breast cancer cell line (MCF-7); assay: Antiproliferative activity, CCK-8 assay, MCF-7; assay type: cell-based; settings: CCK-8, 48 h, means of three experiments
Experimental: Cell culture and cytotoxicity assay […]
against MCF-7 human breast cancer cell line by using the CCK -8 assay with cisplatin, […]
cultured in RPMI-1640 medium containing 10% fetal bovine serum in a humidified 5% CO2 atmosphere at 37 °C. Cells were seeded into 96-well plates at a density of 1×10^5 cells/well and incubated for 24 h. After incubation, the cells were treated with vehicle control, reference drugs, or title compounds, and incubated at 37 °C for 48 h.
Then CCK-8 was added and incubated for another 4 h. The absorbance values of the solution at 450 nm were measured using microplate reader, and each experiment was performed at least in triplicate. Then the results were expressed as the IC50 values. […]

tubulin = tested on: tubulin; set-up: method as in PMID 31724435; settings: naphthalene-chalcone derivative of earlier work ref 23; read-out: Tubulin polymerisation IC50; cited from earlier work
[3] = tested on: normal human embryonic kidney cell line (HEK293); assay: Inhibitory activity against normal cell line HEK293; assay type: cell-based
purified tubulin protein = assay: In vitro tubulin polymerisation assay; assay type: biochemical; settings: 37 °C, 20 min incubation
Experimental: 1.3. In vitro tubulin polymerization assay
The purified tubulin protein was mixed with different concentrations of compound 5b […]
PEM buffer (100 mM PIPES, 1 mM MgCl2, and 1 mM EGTA) with 1 mM GTP and 5% glycerol. Then the mixture was immediately monitored under 340 nm at 37 °C every 1 min for 20 min using the spectrophotometer. The plateau absorbance values were used for calculations. The IC50 value was defined as the concentration of the compound

MCF-7 cancer cells [4] = assay: Annexin V-FITC/PI apoptosis assay; assay type: cell-based, human; settings: 24 h; for total numbers of early and late apoptotic cells: control 4.93%
Experimental: Considering that tubulin polymerisation inhibitors can induce cellular apoptosis, the Annexin V-FITC/PI assay was performed to detect whether compound 5b was able to induce cancer cell apoptosis. […]
MCF-7 cells were seeded in 6-well plates (3 × 10^5 cells/well) and incubated with different concentrations of compound 5b (0.3125, 0.625, and 1.25 μM) or vehicle for 24 h. Cells were harvested and incubated with 5 μL of Annexin-V/FITC in 300 μL binding buffer for 15 min. Then, PI solution (10 μL) was added to the medium and […]
incubated for 5 min. […]

MCF-7 cancer cells [5] = assay: Cell cycle analysis by flow cytometry; assay type: cell-based, human; settings: 24 h; for G2 (G2/M) population: control 26.66%; for S population: control 33.42%; for G1 population: control 39.92%
Experimental: Based on the literature report, most tubulin destabilising agents can disrupt regulated cell cycle distribution and lead to cell cycle arrest at metaphase[23]^,[31]. Therefore, we evaluated the effect of the most promising compound 5b on the cell cycle of MCF-7 cancer cells using the flow cytometry analysis assay. In this study, MCF-7 cancer cells were incubated with different concentrations of 5b (0.3125, 0.625, and 1.25 μM) for 24 h. […]
MCF-7 cells were seeded in 6-well plates (3 × 10^5 cells/well) and incubated in the absence and presence of different concentrations of compound 5b (0.3125, 0.625, and 1.25 μM) for 24 h. Subsequently, the cells were harvested, washed with PBS, and fixed in 70% ice-cold ethanol at 4 °C overnight. After removed the ethanol in the next day, the cells were resuspended in the staining buffer and incubated with RNase and propidium iodide for 30 min. […]

IC50 ([1]; Homo sapiens, A549): > 50 µM
IC50 ([2]; Homo sapiens, MCF7): 14.9 ± 0.34 µM
SMILES: CCCC(=O)Nc1nc(-c2ccc(OC)c3ccccc23)c(-c2ccc(OC)cc2)s1 [6c]

IC50 ([1]; Homo sapiens, A549): 16.3 ± 0.89 µM
IC50 ([2]; Homo sapiens, MCF7): 13.5 ± 0.82 µM
SMILES: CCC(=O)N(C(C)=O)c1nc(-c2ccc(OC)c3ccccc23)c(-c2cc(OC)c(OC)c(OC)c2Br)s1 [6n, N-acetyl-N-(5-(2-bromo-3,4,5-trimethoxyphenyl)-4-(4-methoxynaphthalen-1-yl)thiazol-2-yl)propionamide]

SMILES: COc1ccc(/C=C\c2cc(OC)c(OC)c(OC)c2)cc1O [CA-4, combretastatin A-4, reference compound]
IC50 ([1]; Homo sapiens, A549): 0.029 ± 0.004 µM

SMILES: COc1cc2nc(/C=N/c3cccnc3Nc3ccc(Cl)cc3)sc2c(OC)c1OC [IV]
IC50 (tubulin): 8.4 µM

IC50 ([1]; Homo sapiens, A549): 7 ± 0.3 µM
IC50 ([2]; Homo sapiens, MCF7): 5.49 ± 0.84 µM
SMILES: CCOc1ccc(-c2sc(NC(C)=O)nc2-c2ccc(OC)c3ccccc23)cc1 [6f]

SMILES: CCC(=O)Nc1nc(-c2ccc(OC)c3ccccc23)c(-c2cc(OC)c(OC)c(OC)c2Br)s1 [6j]
IC50 ([1]; Homo sapiens, A549): > 50 µM
IC50 ([2]; Homo sapiens, MCF7): > 50 µM

IC50 ([1]; Homo sapiens, A549): 16.1 ± 0.83 µM
IC50 ([2]; Homo sapiens, MCF7): 2.16 ± 0.27 µM
SMILES: COc1ccc(-c2sc(NC(C)=O)nc2-c2ccc(OC)c3ccccc23)cc1 [6a]

IC50 (purified tubulin protein): 3.3 µM
IC50 ([1]; Homo sapiens, A549): 0.97 ± 0.13 µM
IC50 ([2]; Homo sapiens, MCF7): 0.48 ± 0.03 µM
SMILES: CCOc1ccc(-c2sc(N)nc2-c2ccc(OC)c3ccccc23)cc1 [5b]
IC50 [3]: 16.4 ± 4.61 µM
Q1 quadrant (MCF-7 cancer cells [4]; 5b 0.3125 μM): 0.25
Q2 quadrant (MCF-7 cancer cells [4]; 5b 0.3125 μM): 10.2
Q3 quadrant (MCF-7 cancer cells [4]; 5b 0.3125 μM): 5.58
Q4 quadrant (MCF-7 cancer cells [4]; 5b 0.3125 μM): 83.9
total numbers of early and late apoptotic cells (MCF-7 cancer cells [4]; 5b 0.3125 μM): 15.78%
Q1 quadrant (MCF-7 cancer cells [4]; 5b 0.625 μM): 0.44
Q2 quadrant (MCF-7 cancer cells [4]; 5b 0.625 μM): 14.8
Q3 quadrant (MCF-7 cancer cells [4]; 5b 0.625 μM): 10.8
Q4 quadrant (MCF-7 cancer cells [4]; 5b 0.625 μM): 74.0
total numbers of early and late apoptotic cells (MCF-7 cancer cells [4]; 5b 0.625 μM): 25.6%
Q1 quadrant (MCF-7 cancer cells [4]; 5b 1.25 μM): 0.55
Q2 quadrant (MCF-7 cancer cells [4]; 5b 1.25 μM): 15.1
Q3 quadrant (MCF-7 cancer cells [4]; 5b 1.25 μM): 12.6
Q4 quadrant (MCF-7 cancer cells [4]; 5b 1.25 μM): 71.8
total numbers of early and late apoptotic cells (MCF-7 cancer cells [4]; 5b 1.25 μM): 27.7%
G2 (G2/M) population (MCF-7 cancer cells [5]; 5b 0.3125 μM): 29.03%
S population (MCF-7 cancer cells [5]; 5b 0.3125 μM): 28.11%
G1 population (MCF-7 cancer cells [5]; 5b 0.3125 μM): 42.86%
G2 (G2/M) population (MCF-7 cancer cells [5]; 5b 0.625 μM): 47.32%
S population (MCF-7 cancer cells [5]; 5b 0.625 μM): 36.61%
G1 population (MCF-7 cancer cells [5]; 5b 0.625 μM): 16.06%
G2 (G2/M) population (MCF-7 cancer cells [5]; 5b 1.25 μM): 72.49%
S population (MCF-7 cancer cells [5]; 5b 1.25 μM): 20.22%
G1 population (MCF-7 cancer cells [5]; 5b 1.25 μM): 7.29%

IC50 ([1]; Homo sapiens, A549): 2.72 ± 0.18 µM
IC50 ([2]; Homo sapiens, MCF7): 1.8 ± 0.07 µM
SMILES: COc1ccc(-c2sc(N)nc2-c2ccc(OC)c3ccccc23)cc1 [5a]

IC50 ([1]; Homo sapiens, A549): 18.7 ± 0.89 µM
IC50 ([2]; Homo sapiens, MCF7): 9.61 ± 0.54 µM
SMILES: CCOc1ccc(-c2sc(NC(=O)CC)nc2-c2ccc(OC)c3ccccc23)cc1 [6g]

IC50 ([1]; Homo sapiens, A549): > 50 µM
IC50 ([2]; Homo sapiens, MCF7): 7.18 ± 0.78 µM
SMILES: CCCC(=O)Nc1nc(-c2ccc(OC)c3ccccc23)c(-c2ccc(OCC)cc2)s1 [6h]

IC50 ([1]; Homo sapiens, A549): > 50 µM
IC50 ([2]; Homo sapiens, MCF7): 31.1 ± 0.7 µM
SMILES: COc1cc(-c2sc(N)nc2-c2ccc(OC)c3ccccc23)c(Br)c(OC)c1OC [5c]

SMILES: N.N.[Cl][Pt][Cl] [Cisplatin, reference compound]
IC50 [1]: 4.92 ± 0.56 µM
IC50 [2]: 11.2 ± 0.75 µM

IC50 ([1]; Homo sapiens, A549): > 50 µM
IC50 ([2]; Homo sapiens, MCF7): 12.3 ± 0.54 µM
SMILES: COc1ccc(-c2sc(NC(=O)C(C)C)nc2-c2ccc(OC)c3ccccc23)cc1 [6e]

IC50 ([1]; Homo sapiens, A549): 40.32 ± 0.32 µM
IC50 ([2]; Homo sapiens, MCF7): 14.8 ± 0.45 µM
SMILES: CCC(=O)Nc1nc(-c2ccc(OC)c3ccccc23)c(-c2ccc(OC)cc2)s1 [6b]

SMILES: COc1cc(-c2sc(NC(=O)C(C)C)nc2-c2ccc(OC)c3ccccc23)c(Br)c(OC)c1OC [6k]
IC50 ([1]; Homo sapiens, A549): > 50 µM
IC50 ([2]; Homo sapiens, MCF7): > 50 µM

IC50 ([1]; Homo sapiens, A549): > 50 µM
IC50 ([2]; Homo sapiens, MCF7): 7.69 ± 0.34 µM
SMILES: CCOc1ccc(-c2sc(NC(=O)C(C)C)nc2-c2ccc(OC)c3ccccc23)cc1 [6i]

IC50 ([1]; Homo sapiens, A549): > 50 µM
IC50 ([2]; Homo sapiens, MCF7): > 50 µM
SMILES: CCCC(=O)N(C(=O)CCC)c1nc(-c2ccc(OC)c3ccccc23)c(-c2cc(OC)c(OC)c(OC)c2Br)s1 [6m]

IC50 (purified tubulin protein): 6.6 µM
IC50 ([1]; Homo sapiens, A549): 1.91 ± 0.08 µM
IC50 ([2]; Homo sapiens, MCF7): 1.03 ± 0.09 µM
SMILES: COc1ccc(-c2sc(NC(=O)C(Cl)(Cl)Cl)nc2-c2ccc(OC)c3ccccc23)cc1 [6d]
